Earlier results in patent US20250073301A1, “Delayed Release Compositions of Linaclotide” (Ironwood Pharmaceuticals, Inc., priority 2013, published 2025).
Ends that are not written are not given here.

Details: human volunteers, oral linaclotide

## CCEYCCNPACTGCY (cysteine pairing not given here) [linaclotide]
  oral dose found in feces: about 5%
